Experimental data as given in ChEMBL document CHEMBL2150993, “Substituted thiazoles VII. Synthesis and antitumor activity of certain 2-(substituted amino)-4-phenyl-1,3-thiazole analogs” (2012).

Assays:
Assay type in all cases: functional
Conditions in all cases: at 10 µM
[1] = Growth inhibition of human NCI-322M cells after 48 hrs by cell counting analysis
BT-549 = assay: Growth inhibition of human BT549 cells after 48 hrs by cell counting analysis
SF-539 = assay: Growth inhibition of human SF539 cells after 48 hrs by cell counting analysis
UO-31 = assay: Growth inhibition of human UO31 cells after 48 hrs by cell counting analysis
SNB-75 = assay: Growth inhibition of human SNB75 cells after 48 hrs by cell counting analysis
OVCAR-4 = assay: Growth inhibition of human OVCAR4 cells after 48 hrs by cell counting analysis
HL-60 = assay: Growth inhibition of human HL60 cells after 48 hrs by cell counting analysis
A549 = assay: Growth inhibition of human A549 cells after 48 hrs by cell counting analysis
PC-3 = assay: Growth inhibition of human PC3 cells after 48 hrs by cell counting analysis
[2] = Growth inhibition of human NCI-ADR-RES cells after 48 hrs by cell counting analysis
MDA-MB-231 = assay: Growth inhibition of human MDA-MB-231 cells after 48 hrs by cell counting analysis
NCI-H226 = assay: Growth inhibition of human NCI-H226 cells after 48 hrs by cell counting analysis
MDA-MB-435 = assay: Growth inhibition of human MDA-MB-435 cells after 48 hrs by cell counting analysis
RPMI-8226 = assay: Growth inhibition of human RPMI8226 cells after 48 hrs by cell counting analysis
MCF7 = assay: Growth inhibition of human MCF7 cells after 48 hrs by cell counting analysis
Malme-3M = assay: Growth inhibition of human MALME-3M cells after 48 hrs by cell counting analysis
UACC-257 = assay: Growth inhibition of human UACC257 cells after 48 hrs by cell counting analysis
SNB-19 = assay: Growth inhibition of human SNB19 cells after 48 hrs by cell counting analysis
OVCAR-5 = assay: Growth inhibition of human OVCAR5 cells after 48 hrs by cell counting analysis
SF-295 = assay: Growth inhibition of human SF295 cells after 48 hrs by cell counting analysis
NCI-H522 = assay: Growth inhibition of human NCI-H522 cells after 48 hrs by cell counting analysis
HT-29 = assay: Growth inhibition of human HT-29 cells after 48 hrs by cell counting analysis
LOX IMVI = assay: Growth inhibition of human LOXIMVI cells after 48 hrs by cell counting analysis
SK-OV-3 = assay: Growth inhibition of human SKOV3 cells after 48 hrs by cell counting analysis
SF-268 = assay: Growth inhibition of human SF268 cells after 48 hrs by cell counting analysis
HCC 2998 = assay: Growth inhibition of human HCC2998 cells after 48 hrs by cell counting analysis
HOP-62 = assay: Growth inhibition of human HOP62 cells after 48 hrs by cell counting analysis
SR = assay: Growth inhibition of human SR cells after 48 hrs by cell counting analysis
CAKI-1 = assay: Growth inhibition of human Caki1 cells after 48 hrs by cell counting analysis
EKVX = assay: Growth inhibition of human EKVX cells after 48 hrs by cell counting analysis
OVCAR-3 = assay: Growth inhibition of human OVCAR3 cells after 48 hrs by cell counting analysis
HOP-92 = assay: Growth inhibition of human HOP92 cells after 48 hrs by cell counting analysis
IGROV-1 = assay: Growth inhibition of human IGROV1 cells after 48 hrs by cell counting analysis
UACC-62 = assay: Growth inhibition of human UACC62 cells after 48 hrs by cell counting analysis
M14 = assay: Growth inhibition of human M14 cells after 48 hrs by cell counting analysis
OVCAR-8 = assay: Growth inhibition of human OVCAR8 cells after 48 hrs by cell counting analysis
SW-620 = assay: Growth inhibition of human SW620 cells after 48 hrs by cell counting analysis
RXF 393 = assay: Growth inhibition of human RXF393 cells after 48 hrs by cell counting analysis
HCT-116 = assay: Growth inhibition of human HCT116 cells after 48 hrs by cell counting analysis
U-251 = assay: Growth inhibition of human U251 cells after 48 hrs by cell counting analysis
HCT-15 = assay: Growth inhibition of human HCT15 cells after 48 hrs by cell counting analysis
SN12C = assay: Growth inhibition of human SN12C cells after 48 hrs by cell counting analysis
NCI-H23 = assay: Growth inhibition of human NCI-H23 cells after 48 hrs by cell counting analysis
TK-10 = assay: Growth inhibition of human TK10 cells after 48 hrs by cell counting analysis
CCRF-CEM = assay: Growth inhibition of human CCRF-CEM cells after 48 hrs by cell counting analysis
K562 = assay: Growth inhibition of human K562 cells after 48 hrs by cell counting analysis
SK-MEL-28 = assay: Growth inhibition of human SK-MEL-28 cells after 48 hrs by cell counting analysis
T47D = assay: Growth inhibition of human T47D cells after 48 hrs by cell counting analysis
MOLT-4 = assay: Growth inhibition of human MOLT4 cells after 48 hrs by cell counting analysis
MDA-MB-468 = assay: Growth inhibition of human MDA-MB-468 cells after 48 hrs by cell counting analysis
SK-MEL-2 = assay: Growth inhibition of human SK-MEL-2 cells after 48 hrs by cell counting analysis
SK-MEL-5 = assay: Growth inhibition of human SK-MEL-5 cells after 48 hrs by cell counting analysis
KM12 = assay: Growth inhibition of human KM12 cells after 48 hrs by cell counting analysis
ACHN = assay: Growth inhibition of human ACHN cells after 48 hrs by cell counting analysis

Measured: growth inhibition (GI)

Cc1ccc(-c2csc(NC(=O)CN3CCN(C)CC3)n2)cc1
12%: CAKI-1
12.7%: MCF7
19.9%: UO-31
11.4%: K562
34.2%: MDA-MB-231
12.8%: BT-549
42.2%: SNB-75
13.4%: MOLT-4
10.4%: SN12C
<10%: all other assays above
